Measurements published in patent US10011607B2, “Ethynyl derivatives” (Hoffmann-La Roche Inc., priority 2015, dated 2018).

Target: human mGlu4 receptor (Homo sapiens (Human), UniProt Q14833)
Assay: Ca2+ mobilization in vitro assay on recombinant human mGlu4 expressed in HEK293 cells (PAM)
Assay type: cell-based
Conditions: for Emax: HEK293, maximal response in % of maximal stimulatory effect of saturating L-AP4, read-out: Eff. (%); for EC50: HEK293 cells, human mGlu4, in presence of EC20 of L-AP4, read-out: EC50 (nM) mGlu4PAM
Source text: FIG. 1: Illustrates the experimental outline for mGlu4 PAM Ca^2+ mobilization screening assay and the determination of EC50 and % Emax values. […] A depression of the signal observed after addition of the EC20 concentration of L-AP4 was indicative of an inhibitory activity of the test compound.
Determination of EC50 Values Using a Ca2+ Mobilization In Vitro Assay on Recombinant Human mGlu4 Expressed in HEK293 Cells:
A monoclonal HEK-293 cell line stably transfected with a cDNA encoding for the human mGlu4 receptor was generated; for the work with mGlu4 Positive Allosteric Modulators (PAMs), a cell line with low receptor expression levels and low constitutive receptor activity was selected to allow the differentiation of agonistic versus PAM activity. Cells were cultured according to standard protocols (Freshney, 2000) in Dulbecco's Modified Eagle Medium with high glucose supplemented with 1 mM glutamine, 10% (vol/vol) heat-inactivated bovine calf serum, Penicillin/Streptomycin, 50 μg/ml hygromycin and 15 μg/ml blasticidin (all cell culture reagents and antibiotics from Invitrogen, Basel, Switzerland).
About 24 hrs before an experiment, 5×10^4 cells/well were seeded in poly-D-lysine coated, black/clear-bottomed 96-well plates. The cells were loaded with 2.5 μM Fluo-4AM in loading buffer (1×HBSS, 20 mM HEPES) for 1 hr at 37° C. and washed five times with loading buffer. The cells were transferred into a Functional Drug Screening System 7000 (Hamamatsu, Paris, France), and 11 half logarithmic serial dilutions of test compound at 37° C. were added and the cells were incubated for 10-30 min. with on-line recording of fluorescence. Following this pre-incubation step, the agonist (2S)-2-amino-4-phosphonobutanoic acid (L-AP4) was added to the cells at a concentration corresponding to EC20 with on-line recording of fluorescence; in order to account for day-to-day variations in the responsiveness of cells, the EC20 of L-AP4 was determined immediately ahead of each experiment by recording of a full dose-response curve of L-AP4.
Responses were measured as peak increase in fluorescence minus basal (i.e. fluorescence without addition of L-AP4), normalized to the maximal stimulatory effect obtained with saturating concentrations of L-AP4. Graphs were plotted with the % maximal stimulatory using XLfit, a curve fitting program that iteratively plots the data using Levenburg Marquardt algorithm. The single site competition analysis equation used was y=A+((B−A)/(1+((x/C)D))), where y is the % maximal stimulatory effect, A is the minimum y, B is the maximum y, C is the EC50, x is the log 10 of the concentration of the competing compound and D is the slope of the curve (the Hill Coefficient). From these curves the EC50 (drug concentration at which 50% of the maximal receptor activation was achieved), the Hill coefficient as well as the maximal response in % of the maximal stimulatory effect obtained with saturating concentrations of L-AP4 were calculated (see FIG. 1).

human mGlu4 receptor, sequence (Q14833 33-912): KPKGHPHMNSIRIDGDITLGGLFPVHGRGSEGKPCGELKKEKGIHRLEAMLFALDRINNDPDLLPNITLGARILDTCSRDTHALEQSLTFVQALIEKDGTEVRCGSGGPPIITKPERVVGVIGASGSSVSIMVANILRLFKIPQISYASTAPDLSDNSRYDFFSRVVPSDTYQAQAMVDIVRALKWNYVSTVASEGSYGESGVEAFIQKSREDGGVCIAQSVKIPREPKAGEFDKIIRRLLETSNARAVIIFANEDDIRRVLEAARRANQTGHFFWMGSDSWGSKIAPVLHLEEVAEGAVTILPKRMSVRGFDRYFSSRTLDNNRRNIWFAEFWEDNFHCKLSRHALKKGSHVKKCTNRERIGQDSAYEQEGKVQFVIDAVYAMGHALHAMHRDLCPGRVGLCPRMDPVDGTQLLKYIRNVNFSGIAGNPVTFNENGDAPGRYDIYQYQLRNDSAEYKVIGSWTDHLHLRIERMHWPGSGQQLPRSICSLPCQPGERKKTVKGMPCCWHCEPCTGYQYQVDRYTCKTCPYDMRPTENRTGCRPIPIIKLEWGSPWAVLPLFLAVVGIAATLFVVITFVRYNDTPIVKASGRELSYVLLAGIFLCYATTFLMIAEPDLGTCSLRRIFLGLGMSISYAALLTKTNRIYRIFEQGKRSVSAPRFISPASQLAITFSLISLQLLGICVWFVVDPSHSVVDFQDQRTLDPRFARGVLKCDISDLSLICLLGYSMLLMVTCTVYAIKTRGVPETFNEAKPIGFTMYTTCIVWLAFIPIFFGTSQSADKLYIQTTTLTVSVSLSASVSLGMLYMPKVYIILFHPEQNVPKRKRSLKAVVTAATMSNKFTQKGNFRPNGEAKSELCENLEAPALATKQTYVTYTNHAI

Row | Compound | Emax [%] | EC50 [nM]
1 | O=C1C2CC(=O)N(c3c(F)cc(C#Cc4ccccc4)cc3F)C(=O)N2CCN1c1cccnc1 (racemic) [Example 1, (9aRS)-7-[2,6-difluoro-4-(2-phenylethynyl)phenyl]-2-(3-pyridyl)-3,4,9,9a-tetrahydropyrazino[1,2-c]pyrimidine-1,6,8-trione] | 105 | 224
2 | O=C1C2CC(=O)N(c3c(F)cc(C#Cc4ccccc4)cc3F)C(=O)N2CCN1c1ccncn1 (racemic) [Example 2, (9aRS)-7-[2,6-difluoro-4-(2-phenylethynyl)phenyl]-2-pyrimidin-4-yl-3,4,9,9a-tetrahydropyrazino[1,2-c]pyrimidine-1,6,8-trione] | 88 | 85
3 | O=C1C2CC(=O)N(c3c(F)cc(C#Cc4ccccc4)cc3F)C(=O)N2CCN1c1ccccn1 (racemic) [Example 3, (9aRS)-7-[2,6-difluoro-4-(2-phenylethynyl)phenyl]-2-(2-pyridyl)-3,4,9,9a-tetrahydropyrazino[1,2-c]pyrimidine-1,6,8-trione] | 116 | 235
4 | CC12CC(=O)N(c3c(F)cc(C#Cc4ccccc4)cc3F)C(=O)N1CCN(c1ccccn1)C2=O (racemic) [Example 4, (9aRS)-7-[2,6-difluoro-4-(2-phenylethynyl)phenyl]-9a-methyl-2-(2-pyridyl)-4,9-dihydro-3H-pyrazino[1,2-c]pyrimidine-1,6,8-trione] | 110 | 119
5 | CC12CC(=O)N(c3c(F)cc(C#Cc4ccccc4)cc3F)C(=O)N1CCN(c1cccnc1)C2=O (racemic) [Example 6, (9aRS)-7-[2,6-difluoro-4-(2-phenylethynyl)phenyl]-9a-methyl-2-(3-pyridyl)-4,9-dihydro-3H-pyrazino[1,2-c]pyrimidine-1,6,8-trione] | 122 | 118
6 | CC12CC(=O)N(c3c(F)cc(C#Cc4ccccc4)cc3F)C(=O)N1CCN(c1ccncc1)C2=O (racemic) [Example 8, (9aRS)-7-[2,6-difluoro-4-(2-phenylethynyl)phenyl]-9a-methyl-2-(4-pyridyl)-4,9-dihydro-3H-pyrazino[1,2-c]pyrimidine-1,6,8-trione] | 118 | 129
7 | Cc1cccc(N2CCN3C(=O)N(c4c(F)cc(C#Cc5ccccc5)cc4F)C(=O)CC3(C)C2=O)n1 (racemic) [Example 10, (9aRS)-7-[2,6-difluoro-4-(2-phenylethynyl)phenyl]-9a-methyl-2-(6-methyl-2-pyridyl)-4,9-dihydro-3H-pyrazino[1,2-c]pyrimidine-1,6,8-trione] | 127 | 163
8 | Cc1cc(N2CCN3C(=O)N(c4c(F)cc(C#Cc5ccccc5)cc4F)C(=O)CC3(C)C2=O)ccn1 (racemic) [Example 11, (9aRS)-7-[2,6-difluoro-4-(2-phenylethynyl)phenyl]-9a-methyl-2-(2-methyl-4-pyridyl)-4,9-dihydro-3H-pyrazino[1,2-c]pyrimidine-1,6,8-trione] | 119 | 214
9 | Cc1ccnc(N2CCN3C(=O)N(c4c(F)cc(C#Cc5ccccc5)cc4F)C(=O)CC3(C)C2=O)c1 (racemic) [Example 12, (9aRS)-7-(2,6-difluoro-4-(phenylethynyl)phenyl)-9a-methyl-2-(4-methylpyridin-2-yl)tetrahydro-1H-pyrazino[1,2-c]pyrimidine-1,6,8(2H,7H)-trione] | 126 | 131
10 | Cc1cncc(N2CCN3C(=O)N(c4c(F)cc(C#Cc5ccccc5)cc4F)C(=O)CC3(C)C2=O)c1 (racemic) [Example 14, (9aRS)-7-[2,6-difluoro-4-(2-phenylethynyl)phenyl]-9a-methyl-2-(5-methyl-3-pyridyl)-4,9-dihydro-3H-pyrazino[1,2-c]pyrimidine-1,6,8-trione] | 129 | 105
11 | Cc1ccc(N2CCN3C(=O)N(c4c(F)cc(C#Cc5ccccc5)cc4F)C(=O)CC3(C)C2=O)cn1 (racemic) [Example 16, (9aRS)-7-[2,6-difluoro-4-(2-phenylethynyl)phenyl]-9a-methyl-2-(6-methyl-3-pyridyl)-4,9-dihydro-3H-pyrazino[1,2-c]pyrimidine-1,6,8-trione] | 125 | 298
12 | CC12CC(=O)N(c3c(F)cc(C#Cc4ccccc4)cc3F)C(=O)N1CCN(c1ccnc(Cl)c1)C2=O (racemic) [Example 18, (9aRS)-2-(2-chloro-4-pyridyl)-7-[2,6-difluoro-4-(2-phenylethynyl)phenyl]-9a-methyl-4,9-dihydro-3H-pyrazino[1,2-c]pyrimidine-1,6,8-trione] | 131 | 114
13 | CC12CC(=O)N(c3c(F)cc(C#Cc4ccccc4)cc3F)C(=O)N1CCN(c1ccc(Cl)nc1)C2=O (racemic) [Example 20, (9aRS)-2-(6-chloro-3-pyridyl)-7-[2,6-difluoro-4-(2-phenylethynyl)phenyl]-9a-methyl-4,9-dihydro-3H-pyrazino[1,2-c]pyrimidine-1,6,8-trione] | 101 | 116
14 | COc1ccc(N2CCN3C(=O)N(c4c(F)cc(C#Cc5ccccc5)cc4F)C(=O)CC3(C)C2=O)cn1 (racemic) [Example 22, (9aRS)-7-[2,6-difluoro-4-(2-phenylethynyl)phenyl]-2-(6-methoxy-3-pyridyl)-9a-methyl-4,9-dihydro-3H-pyrazino[1,2-c]pyrimidine-1,6,8-trione] | 106 | 105
15 | CC12CC(=O)N(c3c(F)cc(C#Cc4ccccc4)cc3F)C(=O)N1CCN(c1ncccn1)C2=O (racemic) [Example 25, (9aRS)-7-[2,6-difluoro-4-(2-phenylethynyl)phenyl]-9a-methyl-2-pyrimidin-2-yl-4,9-dihydro-3H-pyrazino[1,2-c]pyrimidine-1,6,8-trione] | 122 | 135
16 | CC12CC(=O)N(c3c(F)cc(C#Cc4ccccc4)cc3F)C(=O)N1CCN(c1ccncn1)C2=O (racemic) [Example 26, (9aRS)-7-[2,6-difluoro-4-(2-phenylethynyl)phenyl]-9a-methyl-2-pyrimidin-4-yl-4,9-dihydro-3H-pyrazino[1,2-c]pyrimidine-1,6,8-trione] | 101 | 36
17 | CC12CC(=O)N(c3c(F)cc(C#Cc4ccccc4)cc3F)C(=O)N1CCN(c1cncnc1)C2=O (racemic) [Example 28, (9aRS)-7-[2,6-difluoro-4-(2-phenylethynyl)phenyl]-9a-methyl-2-pyrimidin-5-yl-4,9-dihydro-3H-pyrazino[1,2-c]pyrimidine-1,6,8-trione] | 120 | 145
18 | Cc1cc(N2CCN3C(=O)N(c4c(F)cc(C#Cc5ccccc5)cc4F)C(=O)CC3(C)C2=O)nc(C)n1 (racemic) [Example 29, (9aRS)-7-[2,6-difluoro-4-(2-phenylethynyl)phenyl]-2-(2,6-dimethylpyrimidin-4-yl)-9a-methyl-4,9-dihydro-3H-pyrazino[1,2-c]pyrimidine-1,6,8-trione] | 112 | 177
19 | Cc1nccc(N2CCN3C(=O)N(c4c(F)cc(C#Cc5ccccc5)cc4F)C(=O)CC3(C)C2=O)n1 (racemic) [Example 30, (9aRS)-7-[2,6-difluoro-4-(2-phenylethynyl)phenyl]-9a-methyl-2-(2-methylpyrimidin-4-yl)-4,9-dihydro-3H-pyrazino[1,2-c]pyrimidine-1,6,8-trione] | 101 | 113
20 | CC12CC(=O)N(c3c(F)cc(C#Cc4ccccc4)cc3F)C(=O)N1CCN(c1cnccn1)C2=O (racemic) [Example 32, (9aRS)-7-[2,6-difluoro-4-(2-phenylethynyl)phenyl]-9a-methyl-2-pyrazin-2-yl-4,9-dihydro-3H-pyrazino[1,2-c]pyrimidine-1,6,8-trione] | 112 | 88
21 | Cc1cncc(N2CCN3C(=O)N(c4c(F)cc(C#Cc5ccccc5)cc4F)C(=O)CC3(C)C2=O)n1 (racemic) [Example 34, (9aRS)-7-[2,6-difluoro-4-(2-phenylethynyl)phenyl]-9a-methyl-2-(6-methylpyrazin-2-yl)-4,9-dihydro-3H-pyrazino[1,2-c]pyrimidine-1,6,8-trione] | 114 | 148
